Source: article PMC9267992, “Synthesis, Self-Assembly, and Cell Responses of Aromatic IKVAV Peptide Amphiphiles” (Molecules, 2022)
pIC50: −log10 of the molar value.

How the values were obtained:
[1] = not given; remark: listed apart in the source
MAP2 in hMSCs = test: Immunofluorescent staining for neuronal-specific marker MAP2; format: cell-based, human; settings: neural induction medium in the presence of the peptide, day 7
From the text: After neuronal inductions of hMSCs, immunofluorescent staining for neuronal-specific markers of β-tubulin and MAP2 was achieved. Figure 10 presents immunostaining for β-tubulin (green) with DAPI (blue) co-staining in hMSCs cultured with NIM (control), NIM in the presence of Ben-IKVAV, and NIM in the presence of PFB-IKVAV for days 1, 2, and 7. It can be seen that there is no β-tubulin stained on day 1. […] On the 7th day of culture, a more evident increase of β-tubulin was observed. […] It is speculated that the nuclear entry may be related to the initiation of the regulation of the gene level in the nucleus to make the differentiation more complete. […] After 7 days of differentiation, the cells gradually tended to mature nerve cells. Among these materials, PFB-IKVAV is the best one for helping cell differentiation.
After neuronal inductions of hMSCs, immunostaining was performed for neuronal-specific markers. Cells were fixed with 4% formaldehyde for 15 min and permeabilized with PBST buffer (0.1% Triton X-100 supplemented with BSA). After permeabilization, cells were blocked with Blocking buffer (PBST buffer + 5% serum) for 30 min and then incubated with primary antibodies β-tubulin (1:100) and MAP2 (1:200) at 4 °C overnight. […] Finally, cells were observed under a fluorescence microscope.

[2] = Thioflavin T (ThT) fluorescence assay for fibrillar peptide structures; format: physicochemical; settings: ratio of ThT emission intensities (I0: without adding hydrogelators), emission at 484 nm
From the text: (§1) Since Ben-IKVAV and PFB-IKVAV could self-assemble to form the network of nanofibers and afford the hydrogels, we further studied the driving force for the intermolecular interactions of the hydrogelators using spectroscopic characterization. […] The UV-vis absorption and circular dichroism (CD) spectra of Ben-IKVAV and PFB-IKVAV in water and methanol are presented in Figure 4. The absorption peaks of Ben-IKVAV are at 262 nm and 254 nm in water and methanol, respectively, indicating the redshift feature caused by the aggregation formation in an aqueous solution. […] CD spectra were recorded to understand the structural properties and molecular arrangement of Ben-IKVAV and PFB-IKVAV (Figure 4C,D). At low concentrations of Ben-IKVAV and PFB-IKVAV (50 and 500 μM) in water, no CD signals were detected in the wavelength region 190–350 nm. […] In addition, Fourier-transform infrared spectroscopy (FT-IR) was employed to verify the hydrogen interactions between molecules in the self-assembled state. […] Since thioflavin T (ThT) is a well-known fluorescent dye utilized to identify the presence of amyloid fibrils, we used the ThT fluorescence assay to further confirm the fibrillar peptide structures present in Ben-IKVAV and PFB-IKVAV. It is known that when ThT binds to β-amyloid fibrils, a remarkable enhancement in fluorescence intensity can be detected at 484 nm. […]

hMSCs [3] = test: RT-qPCR analysis of neuronal-specific markers (Nestin, β-tubulin, SNCA, MAP2); format: cell-based, human; settings: 1000 µM in NIM
Method: To investigate whether IKVAV derivatives can effectively promote the differentiation of stem cells into neural cells, we diluted 1 wt.% of Ben-IKVAV and PFB-IKVAV hydrogels with NIM to 1000 µM, respectively, and cultured hMSCs for 0, 2, and 7 days. The mRNA was collected from NIM, NIM in the presence of Ben-IKVAV, and NIM in the presence of PFB-IKVAV and subjected to real-time quantitative polymerase chain reaction (RT-qPCR) analysis. The expression of neuronal-specific markers, Nestin, β-tubulin, SNCA, and MAP2 are analyzed in this work.
Total RNA was isolated from the control and induced (Neurogenic) hMSCs and quantified with a spectrophotometer (NanoPhotometer™ Pearl Design Edition, Westlake Village, CA, USA). Complementary DNA (cDNA) was synthesized from the total purified RNA (1 μg) using a MMLV High-Performance Reverse Transcriptase kit with a 10 μM OligodT primer at 37 °C for 1 h. […] The RT-qPCR reaction was carried out with initial denaturation at 95 °C for 10 min, followed by 40 cycles of PCR at 95 °C for 15 s, and 60 °C for 60 s.

hMSCs [4] = test: MTT cell viability test; format: cell-based, human; settings: for cell viability: 500 μM, 48 h, ODsample/ODcontrol; for pIC50: 10–500 μM, 24 and 48 h, read-out: half-inhibitory concentration (IC50)
Method: To evaluate the potential biological applications of Ben-IKVAV and PFB-IKVAV, we performed a biocompatibility test of these hydrogelators against hMSCs through MTT [3-(4,5-dimethylthiazol-2-yl)-2,5-diphenyltetrazolium bromide] assay, and the results are presented in Figure 6. The concentrations of Ben-IKVAV and PFB-IKVAV were selected in the range of 10–500 μM, and the cell viability measurements were processed at 24 and 48 h after cell seeding.
The biocompatibilities of Ben-IKVAV and PFB-IKVAV were measured by the MTT cell viability test. The hMSCs were seeded in 24-well plates (density: 50,000 cells per well) with Dulbecco’s modified Eagle’s medium (DMEM, 0.5 mL) containing 10% […] and 1% penicillin/streptomycin solution and then incubated for 24 h. Compounds of Ben-IKVAV and PFB-IKVAV at different concentrations (10, 50, 100, 200, and 500 µM) were added when cells were plated. After 24 and 48 h, the medium was replaced with fresh medium supplemented with MTT reagent (4 mg mL^–1, 0.5 mL per well). After another 4 h, the medium containing MTT was removed, and DMSO (0.5 mL per well) was added to dissolve the formazan crystals. Each of the 24 wells was transferred to a 96-well plate. The optical densities (ODs) of the resulting solutions were measured at 595 nm using an absorbance microplate reader (Infinite F50, TECAN, Männedorf, Switzerland). Cells that had not been subjected to treatment with the compounds were used as the control. The cell viability percentage (%) was calculated from the expression ODsample/ODcontrol.

hMSCs [5] = test: Neural differentiation of hMSCs in neural induction medium (cell morphology, neurite outgrowth); format: cell-based, human; settings: 1000 μM in NIM; for differentiation of hMSCs into neuron-like cells: cultured 0, 2 and 7 days; for cell morphology and axon extension length (average neurite outgrowth length) versus NIM control: days 2 and 7, n = 50
Method: Since Ben-IKVAV and PFB-IKVAV are biocompatible, we then diluted 1 wt.% of Ben-IKVAV and PFB-IKVAV hydrogels with basal medium and neural induction medium (NIM) to 1000 μM, respectively, and cultured them with hMSCs for 0, 2, and 7 days (Figure S2 and Figure 7). […] The fibrous structures of Ben-IKVAV or PFB-IKVAV scattered in the culture medium (NIM) are combined with cell surface receptors to promote neural differentiation. To understand the effect of neural differentiation of hMSCs, the average neurite outgrowth lengths on days 2 and 7 were measured in the control and experimental groups (i.e., Ben-IKVAV in NIM and PFB-IKVAV in NIM).
The hMSCs were grown in 24-well plates (density: 2.4 × 10^5 cells per well) in NIM supplemented with 1% penicillin/streptomycin, 10^−7 M dexamethasone, 50 μg/mL L-Ascorbic acid-2 phosphate, 50 μM indomethacin, 10 μg/mL insulin, and 0.45 mM 3-isobutyl-1-methyl-xanthine. The cells cultured in a basal medium were used as a negative control.

[6] = Hydrogelation / self-assembly under physiological conditions; format: physicochemical; settings: for hydrogel formation: 1 wt.% (ca. 15 mM), pH 7.4; for Tgel-sol: hydrogel
From the text: (§2) For biomedical applications, the self-assembly properties of Ben-IKVAV and PFB-IKVAV were investigated under physiological conditions. […] The corresponding microscopic morphologies were examined by transmission electron microscopy (TEM). […] The nanofibers are intertwined to form fiber bundles with a width of about 17 ± 1 nm. In contrast, PFB-IKVAV produces short nanofibers (diameter around 10 ± 1 nm). These fibrous nanostructures are distributed in water and entangled within a highly organized peptide-amphiphile nanofibers network (i.e., Ben-IKVAV and PFB-IKVAV), allowing for the formation of stable hydrogels. Moreover, the Tgel-sol of Ben-IKVAV and PFB-IKVAV were 65 and 55 °C, respectively. […] Furthermore, the self-assembly of Ben-IKVAV and PFB-IKVAV are viscoelastic gels, because the values of the G′ are higher than those of the loss modulus (G″) in both gels.

[7] = Negatively stained TEM of the hydrogels; format: physicochemical; settings: 1 wt.%, pH 7.4
From the text: as §2
Figure 2 Optical (insets) and negatively stained TEM images of (A) Ben-IKVAV and (B) PFB-IKVAV at a concentration of 1 wt.% under pH 7.4. (Scale bar: 100 nm).

[8] = Oscillatory rheology of the hydrogels; format: physicochemical; settings: 1 wt.%, pH 7.4, oscillatory rheology, ω = 0.1–100 rad·s^−1
From the text: as §2
Figure 3 Frequency-dependent (ω = 0.1–100 rad·s^−1) rheological measurement of Ben-IKVAV (circle) and PFB-IKVAV (square) at a concentration of 1 wt.% under pH 7.4 (solid for G′ and open for G′′).

[9] = Concentration-dependent circular dichroism in water; format: physicochemical; settings: CD: no signal at 50 and 500 μM, Cotton effect at 1000 μM
From the text: as §1

[10] = not given; remark: listed apart in the source
[11] = not given; remark: listed apart in the source

| Substance | new absorption band in water [nm] | FT-IR absorption peak (hydrogen bonding) [1] [cm⁻¹] | immunofluorescent staining for MAP2 relative to neural induction medium (control) (MAP2 in hMSCs) [times] | ThT fluorescence enhancement ratio [2] | cell differentiation ability (comparison of the two peptides) (hMSCs [3]) | cell viability (hMSCs [4]) | pIC50 (hMSCs [4]) | differentiation of hMSCs into neuron-like cells (hMSCs [5]) | cell morphology and axon extension length (average neurite outgrowth length) versus NIM control (hMSCs [5]) | hydrogel formation [6] | Tgel-sol [6] [°C] | nanofiber diameter [7] | storage modulus (G′) [8] [kPa] | concentration at which the peptide self-assembles into high-order supramolecular structures [9] | absorption peak in water [10] [nm] | absorption peak in methanol [11] [nm] | width of fiber bundles [7] |
| --- | --- | --- | --- | --- | --- | --- | --- | --- | --- | --- | --- | --- | --- | --- | --- | --- | --- |
| perfluorophenyl-capped Ile-Lys-Val-Ala-Val | 285 | 1630 |  |  |  |  |  |  |  |  |  |  |  |  |  |  |  |
| perfluorophenyl-capped Ile-Lys-Val-Ala-Val [PFB-IKVAV, IKVAV N-terminally coupled with 2-(perfluorophenyl)acetic acid; hydrogelator] |  |  | 4.6 | 210 | better cell differentiation ability than Ben-IKVAV | over 75% | < 3.30 | could successfully differentiate hMSCs into neuron-like cells | no significant difference | form white translucent hydrogels | 55 | around 10 ± 1 nm | 2.4 | higher than 1000 μM |  |  |  |
| phenyl-capped Ile-Lys-Val-Ala-Val |  | 1630 |  |  |  |  |  |  |  |  |  |  |  |  | 262 | 254 |  |
| phenyl-capped Ile-Lys-Val-Ala-Val [Ben-IKVAV, phenyl-capped pentapeptide; IKVAV N-terminally coupled with 2-phenylacetic acid; hydrogelator] |  |  |  | 140 |  | over 75% | < 3.30 | could successfully differentiate hMSCs into neuron-like cells | no significant difference | form white translucent hydrogels | 65 | 4 ± 2 nm | 32.0 | higher than 1000 μM |  |  | about 17 ± 1 nm |
